# In US7323303B2, “Modified β-lactamases and uses thereof” (priority 2003, dated 2008):
# Tests used:
# [1] = biological target: T1, E. coli TEM-1 β-lactamase (Escherichia coli, UniProt P62593); experiment: Drug screening: E166Cf fluorescence in presence of bacterial β-lactamase culture; type: biochemical; parameters: key: −: Decline in fluorescence signal (presence of beta-lactam hydrolysis); +: No decline in fluorescence signal (absence of beta-lactam hydrolysis); conditions: E. coli TEM-1 culture, undiluted; antibiotic 1.0×10^−4 M; E166Cf 1.2×10^−7 M
# T1 construct: made in house; host or cells: E. coli BL21(DE3); whole overnight culture used undiluted, not purified
# T1 sequence (P62593 24-286 limits assumed): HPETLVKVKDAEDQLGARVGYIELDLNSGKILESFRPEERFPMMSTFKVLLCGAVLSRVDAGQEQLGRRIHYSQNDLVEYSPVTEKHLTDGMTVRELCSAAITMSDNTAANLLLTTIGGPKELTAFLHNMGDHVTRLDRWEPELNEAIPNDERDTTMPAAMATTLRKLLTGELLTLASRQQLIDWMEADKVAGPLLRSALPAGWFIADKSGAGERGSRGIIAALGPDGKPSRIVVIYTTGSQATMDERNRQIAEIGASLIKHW
# Procedure: (§1) The use of the E166Cf enzyme in screening bacterial β-lactamases against various β-lactam antibiotics was investigated. The principle of our method is that when both E166Cf and bacterial β-lactamase are incubated with ‘β-lactamase-unstable’ antibiotics, the fluorescence of the E166Cf enzyme will be suppressed because of the greater catalytic efficiency of the bacterial enzyme. In contrast, when bacterial β-lactamases are screened against ‘β-lactamase-resistant’ antibiotics, the fluorescence of the E166Cf enzyme will be enhanced because of the poor hydrolytic activity of the bacterial enzyme. Thus, any β-lactam antibiotic that causes the labeled enzyme to increase its fluorescence intensity in the presence of bacterial β-lactamases can be used in clinical treatments.
# The TEM-1 β-lactamase was expressed in E. coli. BL21(DE3). Preparation of the TEM-1 β-lactamase was performed as follows. A bacterial strain was streaked on an agar plate containing 100 μg/ml ampicillin, and the plate was incubated at 37° C. for 24 h. A single bacterial colony from the plate was inoculated into 100 ml of sterilized LB broth (28 g/l) which was then incubated at 37° C. with shaking at 280 rpm overnight. After overnight incubation, the bacterial culture was harvested and stored at −20° C.
# (§2) Fluorescence measurements of the E166Cf enzyme in the presence of bacterial cultures and β-lactam antibiotics were performed on a FLUOstar microplate reader (BMG Labtechnologies) equipped with two sample injectors. Excitation and emission filters of 485 and 520 nm respectively were used. For B. cereus penPC β-lactamase, B. licheniformis penP β-lactamase and B. cereus β-lactamase II, the labeled enzymes were mixed with the bacterial cultures, and the mixtures were made up to 300 μl with 50 mM phosphate buffer (pH 7.0) in a 96-well microtiter plate (Corning Costar). For the purpose of comparison, B. subtilis cultures, which produced no β-lactamase, were set up as negative controls. For E. coli. TEM-1 β-lactamase, the labeled enzymes were mixed with the bacterial cultures without dilution. E. coli. cultures, which produced no β-lactamase, were set up as negative controls for comparison. The antibiotics were then added to the bacterial samples by the injectors.
# (§3) The results from the time-resolved fluorescence measurements of the labeled enzyme (1.2×10^−7 M) in the presence of various bacterial cultures and β-lactam antibiotics (1.0×10^−4 M) are shown in FIGS. 23 to 26.
# E166Cf enzyme [2] = biological target: T2, E166Cf enzyme (Bacillus cereus, UniProt P00809, E185C); experiment: Time-resolved fluorescence of E166Cf enzyme with penicillins and cephalosporins; type: biochemical; conditions: E166Cf 1.2×10^−7 M, 50 mM phosphate buffer pH 7.0; up to one hour
# T2 construct: made in house; host or cells: B. subtilis 1A304 (φ105MU331); then labelled chemically
# T2 sequence (P00809 28-306 E185C): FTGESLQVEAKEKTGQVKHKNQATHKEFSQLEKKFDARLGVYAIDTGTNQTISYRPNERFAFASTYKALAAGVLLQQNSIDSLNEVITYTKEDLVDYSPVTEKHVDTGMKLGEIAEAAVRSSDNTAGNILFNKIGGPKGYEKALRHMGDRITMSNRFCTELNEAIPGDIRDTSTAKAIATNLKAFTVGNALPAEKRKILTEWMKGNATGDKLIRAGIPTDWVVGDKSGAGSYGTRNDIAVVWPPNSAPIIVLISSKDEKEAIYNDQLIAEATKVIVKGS
# Procedure: Fluorescence measurements of the E166Cf enzyme in the presence of penicillin G, penicillin V, ampicillin, cefuroxime, cefoxitin and moxalactam were performed on a Perkin Elmer LS50B spectrofluorometer. For time-resolved fluorescence measurement, excitation and emission wavelengths were set at 494 and 515 nm respectively. Both excitation and emission slit widths were set at 5 nm. All fluorescence measurements were performed at room temperature.
# With penicillin G as substrate, the fluorescence signal of the E166Cf enzyme (1.2×10^−7 M) at 515 nm in 50 mM phosphate buffer (pH 7.0) increases as a function of the antibiotic concentration (FIG. 4). The time-resolved fluorescence signals of the E166Cf enzyme at 515 nm were also measured with various concentrations of penicillin G (FIG. 5). At low antibiotic concentration (1.0×10^−7 and 1.0×10^−6 M), the fluorescence intensity of the E166Cf enzyme increases gradually and then declines. At high antibiotic concentration (1.0×10^−5 and 1.0×10^−4 M), the fluorescence signal increases instantaneously and levels off to a plateau. The fluorescence signal stays at the plateau for a certain length of time and then declines afterwards. Similar results were obtained with penicillin V and ampicillin (FIGS. 6 and 7).
# With cefuroxime, cefoxitin and moxalactam as substrates, the fluorescence intensities of the E166Cf enzyme (1.2×10^−7 M) at 515 nm in 50 mM phosphate buffer (pH 7.0) also increase as a function of antibiotic concentration (FIGS. 8 to 10).
# At high substrate concentration (1.0×10^−5 and 1.0×10^−4 M), the penicillin substrates rapidly occupy the active sites to form the ES complexes, thus switching on the fluorescence of the fluorescein labels instantaneously. […] This can be verified by the fact that the ‘plateau time’ (8 and 22 min for 1.0×10^−5 and 1.0×10^−4 M penicillin G respectively) is consistent with the ‘substrate hydrolysis time’ determined by spectrophotometric assays (7 and 20 min for 1.0×10^−5 and 1.0×10^−4 M penicillin G respectively). When most of the penicillin substrates have been hydrolyzed to carboxylic acids, the fluorescence signal of the labeled enzyme will decline subsequently.
# E166Cf enzyme [3] = biological target: T2, E166Cf enzyme; experiment: Circular dichroism assay of antibiotic hydrolysis by E166Cf; type: biochemical; conditions: 1.0×10^−4 M antibiotic, E166Cf 1.2×10^−7 M, one hour incubation
# Source text: The absence of a declining fluorescence signal for cefuroxime, cefoxitin and moxalactam can be ascribed to the poor hydrolytic activities of the E166Cf enzyme towards these antibiotics (very low k2 and/or k3) (FIG. 14). As a result, the cephalosporin substrates stay in the active sites. To verify this, the activities of the labeled enzyme with cefuroxime, cefoxitin and moxalactam as substrates were monitored by circular dichroism (CD) spectropolarimetry. […] Therefore, by measuring the CD signals of cefuroxime, cefoxitin and moxalactam (1.0×10^−4 M) at 258, 264 and 265 nm respectively as a function of time in the presence of E166Cf enzyme (1.2×10^−7 M), the hydrolytic activities of the labeled enzyme towards these antibiotics can be monitored.
# [4] = biological target: T3, B. cereus penPC β-lactamase (Bacillus cereus, UniProt P00809); experiment: Drug screening: E166Cf fluorescence in presence of bacterial β-lactamase culture; type: biochemical; parameters: key: −: Decline in fluorescence signal (presence of beta-lactam hydrolysis); +: No decline in fluorescence signal (absence of beta-lactam hydrolysis); conditions: antibiotic 1.0×10^−4 M, E166Cf 1.2×10^−7 M
# T3 construct: made in house; host or cells: B. subtilis 1A304 (φ105MU331); whole culture used, not purified
# T3 sequence (P00809 28-306): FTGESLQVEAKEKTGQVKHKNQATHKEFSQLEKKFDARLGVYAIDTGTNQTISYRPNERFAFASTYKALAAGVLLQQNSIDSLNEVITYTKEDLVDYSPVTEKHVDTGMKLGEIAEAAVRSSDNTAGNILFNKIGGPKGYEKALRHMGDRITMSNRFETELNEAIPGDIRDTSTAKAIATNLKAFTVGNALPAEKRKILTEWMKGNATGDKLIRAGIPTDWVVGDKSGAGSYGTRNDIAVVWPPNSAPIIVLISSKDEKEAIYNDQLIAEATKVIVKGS
# Procedure: as §1
# (§4) The β-lactamase II, penPC β-lactamase and penP β-lactamase were expressed in B. subtilis 1A304 (φ105MU331). These enzymes were prepared according to the procedures described previously (Reference 7: Thomwell, S. J. East, A. K., Errington, J. An efficient expression and secretion system based on Bacillus subtilis phage phi 105 and its uses for the production for B. cereus β-lactamase I. (1993) Gene 133, 47-53) with slight modifications. A bacterial strain was streaked on an agar plate containing 5 μg/ml chloramphenicol, and the plate was incubated at 37° C. for 24 h. A single bacterial colony from the agar plate was inoculated into 100 ml of sterilized BHY medium (37 g/l brain heart infusion and 5 g/l yeast extract) which was then incubated at 37° C. with shaking at 300 rpm overnight. About 7 ml of overnight inoculum was added to a baffled conical flask containing 100 ml of sterilized BHY medium. The inoculated medium was incubated at 37° C. with shaking at 300 rpm. When the optical density of the bacterial culture at 600 nm reached 3.5 to 4.0, the bacterial culture was heated in a water bath at 51° C. for 5 min. Afterwards, the bacterial culture was incubated at 37° C. with shaking at 300 rpm for a further 6 h. The bacterial culture was then harvested and stored at −20° C.
# as §2, §3
# [5] = biological target: T4, B. licheniformis penP β-lactamase (Bacillus licheniformis, UniProt P00808); experiment: as above; type: biochemical; parameters: key: −: Decline in fluorescence signal (presence of beta-lactam hydrolysis); +: No decline in fluorescence signal (absence of beta-lactam hydrolysis); conditions: antibiotic 1.0×10^−4 M, E166Cf 1.2×10^−7 M
# T4 construct: made in house; host or cells: B. subtilis 1A304 (φ105MU331); whole culture used, not purified
# T4 sequence (P00808 27-307): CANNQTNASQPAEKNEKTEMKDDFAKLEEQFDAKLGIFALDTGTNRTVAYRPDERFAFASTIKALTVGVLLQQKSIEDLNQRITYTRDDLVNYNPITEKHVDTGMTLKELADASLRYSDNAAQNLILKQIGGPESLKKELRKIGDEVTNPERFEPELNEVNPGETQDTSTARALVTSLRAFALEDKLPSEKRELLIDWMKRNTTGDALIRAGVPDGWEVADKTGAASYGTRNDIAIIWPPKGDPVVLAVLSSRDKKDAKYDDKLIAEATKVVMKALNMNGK
# Procedure: as §1, §4, §2, §3
# B. cereus β-lactamase II = biological target: T5, B. cereus β-lactamase II (Bacillus cereus, UniProt P04190); experiment: as above; type: biochemical; parameters: key: −: Decline in fluorescence signal (presence of beta-lactam hydrolysis); +: No decline in fluorescence signal (absence of beta-lactam hydrolysis); conditions: antibiotic 1.0×10^−4 M, E166Cf 1.2×10^−7 M
# T5 construct: made in house; host or cells: B. subtilis 1A304 (φ105MU331); whole culture used, not purified
# T5 sequence (P04190 31-257): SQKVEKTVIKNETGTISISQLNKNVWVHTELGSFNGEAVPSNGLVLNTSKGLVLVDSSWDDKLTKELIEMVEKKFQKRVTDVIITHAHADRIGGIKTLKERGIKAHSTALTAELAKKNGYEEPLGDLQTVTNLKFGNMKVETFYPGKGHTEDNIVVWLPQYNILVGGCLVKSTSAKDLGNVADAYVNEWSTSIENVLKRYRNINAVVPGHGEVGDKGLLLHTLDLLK
# Procedure: as §1, §4, §2, §3
# [6] = tested on: CC1(C)S[C@@H]2[C@H](NC(=O)[C@H](N)c3ccccc3)C(=O)N2[C@H]1C(=O)O; experiment: Spectrophotometric substrate hydrolysis, steady-state kinetics; type: biochemical, Bacillus cereus; conditions: other: Wild-type, 50 mM potassium phosphate buffer pH 7.0, 20° C.
# Procedure: The hydrolytic activities of the wild-type β-lactamase I, E166C and E166Cf mutants towards penicillin G, penicillin V and ampicillin (Sigma) were monitored by the spectrophotometric method. The spectrophotometric measurements were performed on a Perkin Elmer Lambda Bio20 UV/Vis spectrometer. Substrate hydrolysis was monitored at a fixed wavelength: 235 nm for ampicillin, 232 nm for penicillin G and penicillin V. The initial rate of substrate hydrolysis occurring within 5 min was determined in duplicate at each of 6 different substrate concentrations in 50 mM potassium phosphate buffer (pH 7.0) at 20° C. The initial rates determined were then treated as described in Reference 5 to calculate the Michaelis constants (Km) and turnover numbers (kcat) using non-linear regression analysis (equation 1):
# [formula] where v is the initial rate of substrate hydrolysis, Vmax the maximum rate of reaction, [S] the initial substrate concentration, Km the Michaelis constant and kcat=Vmax/[Enzyme].
# The measured steady-state kinetic parameters for hydrolysis of penicillin G, penicillin V and ampicillin by the wild-type β-lactamase I, E166C and E166Cf mutants are summarized in Table 1.
compound,measurement,setting,value
"CO/N=C(\C(=O)N[C@@H]1C(=O)N2C(C(=O)O)=C(COC(N)=O)CS[C@H]12)c1ccco1 [Cefuroxime, cefuroxime]",fluorescence signal of E166Cf (beta-lactam hydrolysis),[1],+
same,time course of E166Cf fluorescence signal at 515 nm,E166Cf enzyme [2],no subsequent decline in intensity was observed
same,change in CD signal of antibiotic (hydrolysis by E166Cf),E166Cf enzyme [3],no significant changes in the CD signals
same,fluorescence signal of E166Cf (beta-lactam hydrolysis),[4],+
same,fluorescence signal of E166Cf (beta-lactam hydrolysis),[5],−
same,fluorescence signal of E166Cf (beta-lactam hydrolysis),B. cereus β-lactamase II,−
"CO[C@@]1(NC(=O)C(C(=O)O)c2ccc(O)cc2)C(=O)N2C(C(=O)O)=C(CSc3nnnn3C)CO[C@@H]21 (stereo partly drawn) [Moxalactam, moxalactam]",fluorescence signal of E166Cf (beta-lactam hydrolysis),[1],+
same,time course of E166Cf fluorescence signal at 515 nm,E166Cf enzyme [2],no subsequent decline in intensity was observed
same,change in CD signal of antibiotic (hydrolysis by E166Cf),E166Cf enzyme [3],no significant changes in the CD signals
same,fluorescence signal of E166Cf (beta-lactam hydrolysis),[4],+
same,fluorescence signal of E166Cf (beta-lactam hydrolysis),[5],+
same,fluorescence signal of E166Cf (beta-lactam hydrolysis),B. cereus β-lactamase II,+
wild-type β-lactamase I (Bacillus cereus),Km,[6],142 ± 8 µM
same,kcat,[6],5210 ± 275 s⁻¹
same,kcat/Km,[6],3.7e+07 ± 4e+06 M⁻¹ s⁻¹
